Biological target: RORγ/γt (Mus musculus, UniProt P51450, T352K)
Experiment: RORγ/γt-luc reporter S2 cell assay / HTS (firefly luciferase)
Conditions: for Curve Class: RORγ/γt HTS concentration response curve class
Description: The Drosophila S2 cell line was originally purchased from Invitrogen and was maintained in Schneider's medium supplemented with 10% heat-inactivated bovine fetal calf serum and antibiotics (Invitrogen). Gal4 DNA binding domain (G4 DBD) corresponding to amino acids 1 through 147 of Gal4 protein was PCR amplified to make a fusion construct with mouse RORγt (amino acids 79 to the carboxyl terminal end) lacking its DNA binding domain. The resulting chimeric gene was subcloned into the copper inducible pMT/V5-His A vector (available from Invitrogen). In a similar manner, Gal4 fusion constructs were prepared with mouse RORα (amino acids 142 to end) or Drosophila DHR3 (amino acids 120 to end).
In order to generate stable cell lines, cells were co-transfected with pMT-G4 DBD-RORγt, pMT-G4 DBD-RORα, pMT-G4 DBD-DHR3, or pMT-G4DBDVP16 and pHygro plasmids (Invitrogen) and screened for resistant colonies in the presence of hygromycin (0.3 mg/mL). More than 150 independent RORγ stable clones with luciferase reporters (pMt-RORγ_luc) were tested for their suitability for the high-throughput screening (HTS) based on the following criteria: high signal-to background ratio in 384- and 1,536-well plates, their high induction rate upon the addition of copper, and RORγ/γt specificity probed by the dsRORγ- or RORγ/γt antagonist-mediated suppression. Positive clones were further transfected with pUAST-firefly luciferase, polIII-Renilla luciferase, and pCoPuro (Iwaki, Figuera et al. 2003) (“Rapid selection of Drosophila S2 cells with the puromycin resistance gene.” Biotechniques 35(3): 482-4, 486.) and selected with puromycin (2.5 ug/ml). […] Using similar methods, stable clones with genomic integration of the luciferase reporters and other reporters were generated such as pMT-RORα_luc, pMT-DHR3_luc, or pMT-VP16_luc.
600 G4 DBD-RORγ/γt-luc reporter (#25) or G4 DBD-VP16-luc reporter cells were distributed into each well of 1,536-well white bottom plates in 4 μl S2 cell culture volume containing hygromicin (300 μg/ml) and puromycin (2 μg/ml). Small compounds in seven different concentrations range from 46 μM to 1.7 nM were pin-transferred (23 nl) by a robot (Inglese et al., 2006, Proc. Natl. Acad. Sci. 103:11473-8). […] After 20-hour incubation at ambient temperature, 1.5 μl firefly luciferase detection mix was added and the luciferase activities were measured in 10 min. ViewLux luminometers were used for measuring luciferase signal.
Since their cognate DNA binding sites were not well characterized, the DNA binding domains (DBD) of RORγ/γt, RORα(mouse homolog for PORγ), and DHR3 (Drosophila orthologue for ROR family proteins) were replaced with the heterologous yeast GAL4 DBD. The transcriptionally active domain of general transcriptional activator VP16 was also fused with GAL4 DBD.

RORγ/γt, sequence (P51450 with tags, fused parts or gaps T352K): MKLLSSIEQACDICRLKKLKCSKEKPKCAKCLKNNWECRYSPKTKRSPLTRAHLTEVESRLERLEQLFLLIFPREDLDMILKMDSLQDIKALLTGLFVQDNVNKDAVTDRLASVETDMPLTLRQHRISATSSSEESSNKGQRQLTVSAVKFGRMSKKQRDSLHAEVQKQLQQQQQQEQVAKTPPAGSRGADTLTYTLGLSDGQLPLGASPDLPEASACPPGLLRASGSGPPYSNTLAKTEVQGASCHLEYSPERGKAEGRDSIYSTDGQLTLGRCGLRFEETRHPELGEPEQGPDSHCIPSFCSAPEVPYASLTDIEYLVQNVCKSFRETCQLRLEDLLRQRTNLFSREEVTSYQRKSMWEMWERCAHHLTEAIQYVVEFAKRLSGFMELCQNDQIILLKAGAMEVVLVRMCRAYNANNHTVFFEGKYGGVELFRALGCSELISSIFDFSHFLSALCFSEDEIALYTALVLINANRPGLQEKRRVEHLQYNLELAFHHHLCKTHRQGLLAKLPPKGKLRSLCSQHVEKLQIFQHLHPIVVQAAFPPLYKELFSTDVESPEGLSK

| IC50 [µM] | 80% Inhib. @ (RORγ/γt reporter, S2 cells, concentration for 80% inhibition) [µM] | SMILES | Curve Class | AC50 [µM] |
| --- | --- | --- | --- | --- |
| 2.11 | 3.293 | C=C1NN=C(c2cc(-c3cccc(OCC)c3)nc3ccccc23)N1CC [MLS000324596-02] | – | – |
| – | – | CCOC(=O)[C@@H]1[C@H]2COc3ccc(Br)cc3[C@@H]2N2C(=O)N(c3ccc(C(F)(F)F)cc3)C(=O)[C@@]12C [MLS001066025-01] | 4 | – |
| – | – | CCOC(=O)[C@@H]1[C@H]2COc3ccc(Br)cc3[C@@H]2N2C(=O)N(c3cccc(F)c3)C(=O)[C@@]12C [MLS001066026-01] | −2.2 | 17.8 |
| – | – | CCOC(=O)[C@@H]1[C@H]2COc3ccc(Br)cc3[C@@H]2N2C(=O)N(c3ccc(C(F)(F)F)cc3)C(=O)[C@]12C [MLS001066035-01] | 4 | 3.98 |
| – | – | CCOC(=O)[C@@H]1[C@H]2COc3ccc(Br)cc3[C@H]2N2C(=O)N(c3cccc(F)c3)C(=O)[C@]12C [MLS001066046-01] | 4 | 0.0126 |
| – | – | CCOC(=O)[C@@H]1[C@H]2COc3ccc(Br)cc3[C@H]2N2C(=O)N(c3cccc(Cl)c3)C(=O)[C@]12C [MLS001066096-01] | −2.2 | 8.91 |
| – | – | CCOC(=O)[C@@H]1[C@H]2COc3ccccc3[C@H]2N2C(=O)N(c3ccc(OC)cc3)C(=O)[C@]12C [MLS001066225-01] | 4 | – |
| – | – | CCOC(=O)[C@@H]1[C@H]2COc3cc(OC)ccc3[C@@H]2N2C(=O)N(c3ccc(F)cc3)C(=O)[C@]12C [MLS001066228-01] | 4 | 0.141 |
| – | – | CCOC(=O)[C@@H]1[C@H]2COc3cc(OC)ccc3[C@@H]2N2C(=O)N(c3ccc(C(F)(F)F)cc3)C(=O)[C@]12C [MLS001066230-01] | 4 | – |
| – | – | CCOC(=O)[C@@H]1[C@H]2COc3cc(OC)ccc3[C@@H]2N2C(=O)N(c3cccc(F)c3)C(=O)[C@@]12C [MLS001066231-01] | −2.1 | 10 |
| – | – | CCOC(=O)[C@@H]1[C@H]2COc3cc(OC)ccc3[C@H]2N2C(=O)N(c3ccc(F)cc3)C(=O)[C@]12C [MLS001066238-01] | 4 | – |
| – | – | CCOC(=O)[C@@H]1[C@H]2COc3cc(OC)ccc3[C@@H]2N2C(=O)N(c3cccc(F)c3)C(=O)[C@]12C [MLS001066241-01] | 4 | 3.98 |
| – | – | CCOC(=O)[C@@H]1[C@H]2COc3ccc(Br)cc3[C@@H]2N2C(=O)N(c3ccccc3)C(=O)[C@]12C [MLS001066242-01] | 4 | 0.0224 |
| – | – | CCOC(=O)[C@@H]1[C@H]2COc3ccc(Br)cc3[C@@H]2N2C(=O)N(c3ccc(F)cc3)C(=O)[C@]12C [MLS001066243-01] | 4 | 0.891 |
| – | – | CCOC(=O)[C@@H]1[C@H]2COc3ccc(Br)cc3[C@@H]2N2C(=O)N(c3ccc(Br)cc3)C(=O)[C@]12C [MLS001066244-01] | 4 | 0.0056 |
| – | – | CCOC(=O)[C@@H]1[C@H]2COc3cc(OC)ccc3[C@H]2N2C(=O)N(c3ccc(F)cc3)C(=O)[C@@]12C [MLS001066248-01] | 4 | – |
| – | – | CCOC(=O)[C@@H]1[C@H]2COc3cc(OC)ccc3[C@H]2N2C(=O)N(c3ccc(C(F)(F)F)cc3)C(=O)[C@@]12C [MLS001066250-01] | 4 | 4.47 |
| – | – | CCOC(=O)[C@@H]1[C@H]2COc3ccc(Br)cc3[C@H]2N2C(=O)N(c3ccc(F)cc3)C(=O)[C@]12C [MLS001066253-01] | 4 | – |
| – | – | CCOC(=O)[C@@H]1[C@H]2COc3ccc(Br)cc3[C@H]2N2C(=O)N(c3ccc(Br)cc3)C(=O)[C@]12C [MLS001066254-01] | 4 | 1.12 |
| – | – | CCOC(=O)[C@@H]1[C@H]2COc3ccccc3[C@H]2N2C(=O)N(c3cccc(F)c3)C(=O)[C@]12C [MLS001066256-01] | 4 | – |
| – | – | CCOC(=O)[C@H]1[C@H]2COc3cc(OC)ccc3[C@@H]2N2C(=O)N(c3ccc(Br)cc3)C(=O)[C@@]12C [MLS001066259-01] | 4 | – |
| – | – | CCOC(=O)[C@@H]1[C@H]2COc3ccc(Br)cc3[C@H]2N2C(=O)N(c3ccc(F)cc3)C(=O)[C@@]12C [MLS001066263-01] | 4 | 0.0045 |
| – | – | CCOC(=O)[C@@H]1[C@H]2COc3cc(OC)ccc3[C@@H]2N2C(=O)N(c3ccc(Cl)cc3)C(=O)[C@@]12C [MLS001066268-01] | −2.1 | 8.91 |
| – | – | CCOC(=O)[C@@H]1[C@H]2COc3cc(OC)ccc3[C@@H]2N2C(=O)N(c3cccc(C)c3)C(=O)[C@@]12C [MLS001066270-01] | −3 | 12.6 |
| – | – | CCOC(=O)[C@@H]1[C@H]2COc3ccccc3[C@H]2N2C(=O)N(c3ccc(C(F)(F)F)cc3)C(=O)[C@]12C [MLS001066275-01] | 4 | 5.01 |
| – | – | CCOC(=O)[C@@H]1[C@H]2COc3ccccc3[C@@H]2N2C(=O)N(c3cccc(Cl)c3)C(=O)[C@@]12C [MLS001066276-01] | −3 | 17.8 |
| – | – | CCOC(=O)[C@@H]1[C@H]2COc3cc(OC)ccc3[C@@H]2N2C(=O)N(c3ccc(OC)cc3)C(=O)[C@]12C [MLS001066279-01] | 4 | – |

| IC50 [µM] | 80% Inhib. @ (RORγ/γt reporter, S2 cells, concentration for 80% inhibition) [µM] | SMILES | Curve Class | AC50 [µM] |
| --- | --- | --- | --- | --- |
| – | – | CCOC(=O)[C@@H]1[C@H]2COc3cc(OC)ccc3[C@@H]2N2C(=O)N(c3cccc(Cl)c3)C(=O)[C@@]12C [MLS001066281-01] | −2.2 | 11.2 |
| – | – | CCOC(=O)[C@@H]1[C@H]2COc3ccccc3[C@@H]2N2C(=O)N(c3cccc(Cl)c3)C(=O)[C@]12C [MLS001066286-01] | 4 | – |
| – | – | CCOC(=O)[C@@H]1[C@H]2COc3cc(OC)ccc3[C@@H]2N2C(=O)N(c3cccc(Cl)c3)C(=O)[C@]12C [MLS001066291-01] | 4 | 0.112 |
| – | – | CCOC(=O)[C@@H]1[C@H]2COc3ccc(Br)cc3[C@@H]2N2C(=O)N(c3ccc(OC)cc3)C(=O)[C@]12C [MLS001066294-01] | 4 | 0.112 |
| – | – | CCOC(=O)[C@@H]1[C@H]2COc3cc(OC)ccc3[C@H]2N2C(=O)N(c3ccc(C)cc3)C(=O)[C@@]12C [MLS001066297-01] | 4 | 0.891 |
| – | – | CCOC(=O)[C@@H]1[C@H]2COc3cc(OC)ccc3[C@H]2N2C(=O)N(c3cccc(Cl)c3)C(=O)[C@]12C [MLS001066301-01] | 4 | 0.631 |
| – | – | CCOC(=O)[C@@H]1[C@H]2COc3ccc(Br)cc3[C@H]2N2C(=O)N(c3ccc(C)cc3)C(=O)[C@]12C [MLS001066302-01] | 4 | – |
| – | – | CCOC(=O)[C@@H]1[C@H]2COc3ccccc3[C@@H]2N2C(=O)N(c3cccc(C)c3)C(=O)[C@]12C [MLS001066305-01] | 4 | 0.891 |
| – | – | CCOC(=O)[C@@H]1[C@H]2COc3ccccc3[C@H]2N2C(=O)N(c3cccc(Cl)c3)C(=O)[C@@]12C [MLS001066306-01] | 4 | 7.08 |
| – | – | CCOC(=O)[C@H]1[C@H]2COc3cc(OC)ccc3[C@@H]2N2C(=O)N(c3ccc(Cl)cc3)C(=O)[C@@]12C [MLS001066308-01] | 4 | – |
| – | – | CCOC(=O)[C@@H]1[C@H]2COc3cc(OC)ccc3[C@H]2N2C(=O)N(c3cccc(Cl)c3)C(=O)[C@@]12C [MLS001066311-01] | 4 | 10 |
| – | – | CCOC(=O)[C@@H]1[C@H]2COc3ccc(Br)cc3[C@H]2N2C(=O)N(c3ccc(Cl)cc3)C(=O)[C@@]12C [MLS001066313-01] | 4 | 0.0447 |
| – | – | CCOC(=O)[C@@H]1[C@H]2COc3cc(OC)ccc3[C@@H]2N2C(=O)N(c3ccc(Br)cc3)C(=O)[C@@]12C [MLS001066318-01] | −2.1 | 7.94 |
| – | – | CCOC(=O)[C@@H]1[C@H]2COc3cc(OC)ccc3[C@@H]2N2C(=O)N(c3ccc(C(F)(F)F)cc3)C(=O)[C@@]12C [MLS001066319-01] | −3 | 15.8 |
| – | – | CCOC(=O)[C@H]1[C@H]2COc3cc(OC)ccc3[C@@H]2N2C(=O)N(c3cccc(Cl)c3)C(=O)[C@@]12C [MLS001066321-01] | 4 | 6.31 |
| – | – | CCOC(=O)[C@@H]1[C@H]2COc3ccccc3[C@@H]2N2C(=O)N(c3ccc(Cl)cc3)C(=O)[C@]12C [MLS001066434-01] | 4 | 3.16 |
| – | – | CCOC(=O)[C@@H]1[C@H]2COc3ccccc3[C@@H]2N2C(=O)N(c3ccc(C)cc3)C(=O)[C@]12C [MLS001066443-01] | 4 | 3.98 |
| – | – | CCOC(=O)[C@@H]1[C@H]2COc3ccccc3[C@H]2N2C(=O)N(c3ccc(Cl)cc3)C(=O)[C@]12C [MLS001066444-01] | 4 | 0.0071 |
| – | – | CCOC(=O)[C@@H]1[C@H]2COc3ccccc3[C@H]2N2C(=O)N(c3ccc(C)cc3)C(=O)[C@]12C [MLS001066453-01] | 4 | 0.282 |
| – | – | CCOC(=O)[C@@H]1[C@H]2COc3ccccc3[C@H]2N2C(=O)N(c3ccc(Cl)cc3)C(=O)[C@@]12C [MLS001066454-01] | 4 | 11.2 |
| – | – | CCOC(=O)[C@@H]1[C@H]2COc3ccccc3[C@@H]2N2C(=O)N(c3ccccc3)C(=O)[C@@]12C [MLS001066482-01] | −2.1 | 12.6 |
| – | – | CCOC(=O)[C@@H]1[C@H]2COc3ccccc3[C@@H]2N2C(=O)N(c3ccc(F)cc3)C(=O)[C@@]12C [MLS001066483-01] | −2.2 | 12.6 |
| – | – | CCOC(=O)[C@@H]1[C@H]2COc3ccccc3[C@@H]2N2C(=O)N(c3ccccc3)C(=O)[C@]12C [MLS001066492-01] | 4 | 0.141 |
| – | – | CCOC(=O)[C@@H]1[C@H]2COc3ccccc3[C@H]2N2C(=O)N(c3ccccc3)C(=O)[C@]12C [MLS001066502-01] | 4 | 0.794 |
| – | – | CCOC(=O)[C@@H]1[C@H]2COc3ccccc3[C@H]2N2C(=O)N(c3ccc(F)cc3)C(=O)[C@]12C [MLS001066503-01] | 4 | 2.51 |
| – | – | CCOC(=O)[C@@H]1[C@H]2COc3ccccc3[C@@H]2N2C(=O)N(c3ccc(OC)cc3)C(=O)[C@@]12C [MLS001066514-01] | 4 | 14.1 |
| – | – | CCOC(=O)[C@@H]1[C@H]2COc3ccccc3[C@@H]2N2C(=O)N(c3ccc(Cl)cc3)C(=O)[C@@]12C [MLS001066523-01] | −3 | 15.8 |
